Source: ChEMBL document CHEMBL1201862, “PubChem BioAssay data set” (2004)
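In this assay, cells in 96-well plates receive the compound at five concentrations for 48 hours. Endpoints are linearly interpolated between the surrounding concentrations. At the GI50, growth is halved.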 Calls of active or inactive are those of the source. Cut-off read from the data, not from the text of the source: active = GI50 up to about 1.1 µM and inactive = higher.

Columns and labels:
Assay in all cases: DTP human tumour cell line panel, 48 h
[1] = test system: 786-0
[2] = test system: HCC 2998
[3] = test system: Hs-578T
[4] = test system: KM12
[5] = test system: LOX IMVI
[6] = test system: MDA-MB-231
[7] = test system: Malme-3M
[8] = test system: NCI-H226
[9] = test system: NCI-H23
[10] = test system: NCI/ADR-RES
[11] = test system: OVCAR-3
[12] = test system: SF-268
[13] = test system: SF-295
[14] = test system: SK-OV-3
[15] = test system: SR
[16] = test system: T47D
[17] = test system: UACC-257
[18] = test system: HL-60

Row | SMILES | GI50 [1] | GI50 [2] | GI50 [3] | GI50 [4] | GI50 [5] | GI50 [6] | GI50 [7] | GI50 [8] | GI50 [9] | GI50 [10] | GI50 [11] | GI50 [12] | GI50 [13] | GI50 [14] | GI50 [15] | GI50 [16] | GI50 [17] | GI50 [18]
1 | O=C(Nc1ccc2oc(=O)c(C(=O)O)cc2c1)Oc1ccccc1 | > 100 µM (inactive) | 59.6 µM (inactive) | > 100 µM (inactive) | > 100 µM (inactive) | > 100 µM (inactive) | > 100 µM (inactive) | > 100 µM (inactive) | > 100 µM (inactive) | > 100 µM (inactive) | > 100 µM (inactive) | > 100 µM (inactive) | > 100 µM (inactive) | > 100 µM (inactive) | > 100 µM (inactive) | > 100 µM (inactive) | > 100 µM (inactive) | > 100 µM (inactive) | –
2 | CCN(CC)/C(Sc1ccccc1)=C(\C(Cl)=C(Cl)Cl)[N+](=O)[O-] | 18 µM (inactive) | 19.5 µM (inactive) | 20.7 µM (inactive) | 17.7 µM (inactive) | 11 µM (inactive) | 24.2 µM (inactive) | 18 µM (inactive) | 18.5 µM (inactive) | 13.7 µM (inactive) | 24.9 µM (inactive) | 16.4 µM (inactive) | 21.4 µM (inactive) | 17.6 µM (inactive) | 33.4 µM (inactive) | – | 17.8 µM (inactive) | 19.1 µM (inactive) | 1.81 µM (inactive)
3 | Clc1c(Cl)c(Cl)c2c(nnn2C2CCCO2)c1Cl (stereo not drawn) | 45.8 µM (inactive) | 29.8 µM (inactive) | 25.8 µM (inactive) | – | – | 43.5 µM (inactive) | 31.3 µM (inactive) | 34.4 µM (inactive) | 19.6 µM (inactive) | 31.7 µM (inactive) | 34.6 µM (inactive) | 29.8 µM (inactive) | 36.9 µM (inactive) | 75.9 µM (inactive) | 32.9 µM (inactive) | 50.9 µM (inactive) | 35.6 µM (inactive) | 5.79 µM (inactive)
4 | C=CC(O)C#Cc1cnc(OC)nc1OC (stereo not drawn) | 38.6 µM (inactive) | > 100 µM (inactive) | > 100 µM (inactive) | 86.7 µM (inactive) | > 100 µM (inactive) | > 100 µM (inactive) | – | 30.1 µM (inactive) | > 100 µM (inactive) | > 100 µM (inactive) | > 100 µM (inactive) | > 100 µM (inactive) | > 100 µM (inactive) | – | > 100 µM (inactive) | > 100 µM (inactive) | > 100 µM (inactive) | 17.2 µM (inactive)
5 | CO/N=C(/C)c1cccc(Nc2nc3ccccc3c3[nH]c4ccccc4c23)c1 | 8.55 µM (inactive) | – | 13.8 µM (inactive) | 3.99 µM (inactive) | 10.6 µM (inactive) | 12.1 µM (inactive) | – | 13.7 µM (inactive) | 10.3 µM (inactive) | 8.97 µM (inactive) | 5.7 µM (inactive) | 12.3 µM (inactive) | 3.5 µM (inactive) | 17.1 µM (inactive) | 5.86 µM (inactive) | 1.84 µM (inactive) | 13.3 µM (inactive) | 12.7 µM (inactive)
6 | S=C(Nc1ccc2c(c1)oc1ccccc12)c1cccnc1 | 35.3 µM (inactive) | > 100 µM (inactive) | > 10 µM (inactive) | > 100 µM (inactive) | > 100 µM (inactive) | > 100 µM (inactive) | > 100 µM (inactive) | 24.3 µM (inactive) | 24.5 µM (inactive) | 25.1 µM (inactive) | 22 µM (inactive) | 29.5 µM (inactive) | 29.9 µM (inactive) | 20.4 µM (inactive) | > 100 µM (inactive) | 30.5 µM (inactive) | – | –
7 | CCOC(=O)c1cc2cc(CSc3ccccc3)ccc2oc1=O | 94.8 µM (inactive) | 42.6 µM (inactive) | 52.1 µM (inactive) | > 100 µM (inactive) | > 100 µM (inactive) | 52.6 µM (inactive) | > 100 µM (inactive) | > 100 µM (inactive) | > 100 µM (inactive) | > 100 µM (inactive) | 96.6 µM (inactive) | > 100 µM (inactive) | 43.4 µM (inactive) | > 100 µM (inactive) | > 100 µM (inactive) | > 100 µM (inactive) | > 100 µM (inactive) | –
8 | Cc1cn(CCOCCOC(=O)NC(CCCNC(N)=O)C(=O)O)c(=O)[nH]c1=O (stereo not drawn) | > 100 µM (inactive) | > 100 µM (inactive) | > 100 µM (inactive) | > 100 µM (inactive) | > 100 µM (inactive) | > 100 µM (inactive) | – | > 100 µM (inactive) | > 100 µM (inactive) | > 100 µM (inactive) | > 100 µM (inactive) | > 100 µM (inactive) | > 100 µM (inactive) | > 100 µM (inactive) | > 100 µM (inactive) | > 100 µM (inactive) | > 100 µM (inactive) | > 100 µM (inactive)
9 | CC1=NN(c2ccc(S(=O)(=O)O)cc2)C(=O)/C1=C/c1ccc(Cl)cc1.c1ccncc1 | > 100 µM (inactive) | – | > 100 µM (inactive) | > 100 µM (inactive) | > 100 µM (inactive) | > 100 µM (inactive) | > 100 µM (inactive) | > 100 µM (inactive) | > 100 µM (inactive) | > 100 µM (inactive) | > 100 µM (inactive) | > 100 µM (inactive) | > 100 µM (inactive) | > 100 µM (inactive) | > 100 µM (inactive) | > 100 µM (inactive) | > 100 µM (inactive) | > 100 µM (inactive)
10 | CC(=O)O[C@@H]1[C@H](OC2CCCCC2(c2ccccc2)c2ccccc2)O[N+]([O-])=CC12CCCCC2 (stereo partly drawn) | 13.4 µM (inactive) | 17.1 µM (inactive) | 19.2 µM (inactive) | 17.2 µM (inactive) | 22 µM (inactive) | 15.4 µM (inactive) | – | 14.1 µM (inactive) | 10.2 µM (inactive) | 15.9 µM (inactive) | 14.9 µM (inactive) | 18.6 µM (inactive) | 15.7 µM (inactive) | 13.4 µM (inactive) | 32 µM (inactive) | 18.4 µM (inactive) | 17.1 µM (inactive) | < 0.01 µM (active)
11 | COC(=O)/C=C\S/C(=C(/c1ccccc1)n1ccc(C(=O)OC)n1)c1ccccc1 | 12.4 µM (inactive) | 41 µM (inactive) | 26.6 µM (inactive) | > 100 µM (inactive) | > 100 µM (inactive) | 9.82 µM (inactive) | 23.7 µM (inactive) | > 100 µM (inactive) | 22.8 µM (inactive) | 47.6 µM (inactive) | – | 20.5 µM (inactive) | 20.3 µM (inactive) | 19.9 µM (inactive) | > 100 µM (inactive) | 24.5 µM (inactive) | 45.3 µM (inactive) | > 100 µM (inactive)
12 | CN(Cc1nc2c(N)nc(N)nc2nc1N)c1ccc(C(=O)NC(CCC(=O)O)C(=O)O)cc1 (stereo not drawn) | < 0.01 µM (active) | 3.65 µM (inactive) | > 19.8 µM (inactive) | > 100 µM (inactive) | < 0.01 µM (active) | > 100 µM (inactive) | – | > 100 µM (inactive) | 0.544 µM (active) | 0.225 µM (active) | > 100 µM (inactive) | 0.299 µM (active) | 0.162 µM (active) | > 100 µM (inactive) | < 0.01 µM (active) | > 100 µM (inactive) | 5.58 µM (inactive) | < 0.01 µM (active)
13 | O=C(NCc1cccs1)OC1CC2CCC1C2 (stereo not drawn) | > 100 µM (inactive) | – | 81.5 µM (inactive) | > 100 µM (inactive) | > 100 µM (inactive) | > 100 µM (inactive) | > 100 µM (inactive) | > 100 µM (inactive) | > 100 µM (inactive) | > 100 µM (inactive) | > 100 µM (inactive) | > 100 µM (inactive) | > 100 µM (inactive) | > 100 µM (inactive) | > 100 µM (inactive) | > 100 µM (inactive) | > 100 µM (inactive) | > 100 µM (inactive)
14 | COc1c(Cl)ccc(Cl)c1-c1nnc(-c2c(Cl)c(Cl)c(Cl)c(Cl)c2-c2nc3cc(C(=O)c4ccccc4)ccc3[nH]2)o1 | 73.6 µM (inactive) | – | 42.2 µM (inactive) | 45.5 µM (inactive) | 54.1 µM (inactive) | 43.8 µM (inactive) | 47.1 µM (inactive) | 26.5 µM (inactive) | 78.2 µM (inactive) | 28.3 µM (inactive) | 53.2 µM (inactive) | 57.1 µM (inactive) | 29.4 µM (inactive) | > 100 µM (inactive) | 25.4 µM (inactive) | > 100 µM (inactive) | 82.2 µM (inactive) | 34.5 µM (inactive)
15 | C[C@H]1[C@@H](c2ccccc2)O[B-](c2ccccc2)(c2ccccc2)[N+]1(C)C | 78.2 µM (inactive) | – | 51.9 µM (inactive) | > 100 µM (inactive) | > 100 µM (inactive) | 21.4 µM (inactive) | 54.8 µM (inactive) | 37.7 µM (inactive) | 70.1 µM (inactive) | 76.7 µM (inactive) | 40.6 µM (inactive) | > 100 µM (inactive) | 32.6 µM (inactive) | > 100 µM (inactive) | 21.5 µM (inactive) | 34.7 µM (inactive) | 84.1 µM (inactive) | > 100 µM (inactive)
16 | O=[N+]([O-])c1nccn1CCCNc1c2ccccc2[n+]([O-])c2ccccc12 | > 100 µM (inactive) | – | > 100 µM (inactive) | > 100 µM (inactive) | > 100 µM (inactive) | > 100 µM (inactive) | > 100 µM (inactive) | 38.6 µM (inactive) | > 100 µM (inactive) | > 100 µM (inactive) | > 100 µM (inactive) | > 100 µM (inactive) | > 100 µM (inactive) | > 100 µM (inactive) | > 100 µM (inactive) | > 100 µM (inactive) | > 100 µM (inactive) | > 100 µM (inactive)
